Columns and labels:
CYP3A4 = target: T1, CYP3A4 (Homo sapiens, UniProt P08684); assay: Cytochrome P450 (CYP450) inhibition assay, Vivid fluorescence, CYP3A4; format: in vitro ADME; conditions: P450 Baculosomes (CYP3A4), probe Vivid substrate (fluorogenic, not named)
T1 construct: purchased Invitrogen Corporation Vivid CYP450 Screening Kit (catalogue number not given)

sodium channel = format: cell-based, human or rat; conditions: known cell line that expresses a sodium channel
CYP2C19 = CYP2C19 (Homo sapiens, UniProt P33261); assay: in vitro
Excerpt: (§1) CYP450 (CYP) is a designation for a superfamily of enzymes. Each family consists of one or more subfamilies and each subfamily contains one or more specific CYP isoforms. The Cytochrome P450 (CYP450) Inhibition Assay is a fluorescence-based assay using a cytochrome CYP isozyme for screening of compounds of the invention to determine the level of CYP inhibition by a specific compound. The assay is based on the CYP inhibition kit described by Vivid CYP450 Screening Kit Protocol, 2005, Invitrogen Corporation (Invitrogen Corporation, 1600 Faraday Avenue, Carlsbad, Calif. 92008, USA).
(§2) This assay is designed to assess compounds by quantifying the inhibition of the predominant human CYP isozymes involved in hepatic drug metabolism. […] The standard method for evaluating specific CYP isozyme inhibition is to determine the conversion rate of a probe substrate into its metabolite, in the presence and absence of the potential inhibitor. Quantification of the metabolite is achieved by HPLC or by using a probe substrate (Table 3) that is metabolized into a fluorescent product (fluorescent assay).
(§3) This assay can be used for single concentration screening or for IC50 determination. In a single concentration screening assay, the final assay concentration of the test compound is 10 μM. In an IC50 determination assay, IC50 may be determined using a 3, 6, or 12 point curve in triplicate with a chosen starting concentration diluted serially.
(§4) In the Preparation Stage, the test compounds, controls (acetonitrile (ACN) or Dimethyl sulfoxide (DMSO) and No Baculosomes), and known inhibitors (Table 4) were diluted to 10% ACN or DMSO in water at appropriate concentrations.

CYP2D6 = CYP2D6 (Homo sapiens, UniProt P10635); assay: in vitro
Excerpt: as §1, §2, §3, §4

CYP2C9 = CYP2C9 (Homo sapiens, UniProt P11712); assay: in vitro
Excerpt: as §1, §2, §3, §4

CHO-K1 (NaV1.4) = format: cell-based, Chinese Hamster
[1] = system: SH-SY5Y (NaV1.9 and NaV1.7); format: cell-based, Human
SK-N-BE2C (NaV1.8) = SK-N-BE2C (NaV1.8) (Homo sapiens, UniProt Q9Y5Y9); format: cell-based
L6 (Nav1.4 and 1.5) = format: cell-based, rat
PC12 (Nav1.2) = PC12 (Nav1.2) (Rattus norvegicus, UniProt P04775)

T1 sequence (P08684 whole entry): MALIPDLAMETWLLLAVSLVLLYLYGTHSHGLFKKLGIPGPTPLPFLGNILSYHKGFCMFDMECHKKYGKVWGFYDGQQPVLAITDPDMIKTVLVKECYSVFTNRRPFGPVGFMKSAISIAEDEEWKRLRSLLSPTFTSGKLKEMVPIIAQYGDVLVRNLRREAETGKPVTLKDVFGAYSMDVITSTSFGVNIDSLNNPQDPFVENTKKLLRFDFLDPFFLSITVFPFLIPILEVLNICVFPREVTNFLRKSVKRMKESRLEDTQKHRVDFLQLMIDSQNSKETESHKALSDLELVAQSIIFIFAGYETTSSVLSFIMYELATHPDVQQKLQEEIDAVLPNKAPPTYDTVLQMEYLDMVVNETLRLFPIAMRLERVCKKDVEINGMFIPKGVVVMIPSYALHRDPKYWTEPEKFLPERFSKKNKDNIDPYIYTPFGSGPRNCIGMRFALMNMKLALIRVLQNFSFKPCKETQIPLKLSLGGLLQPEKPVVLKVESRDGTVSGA
Sequence of SK-N-BE2C (NaV1.8) (Q9Y5Y9 whole entry, looked up): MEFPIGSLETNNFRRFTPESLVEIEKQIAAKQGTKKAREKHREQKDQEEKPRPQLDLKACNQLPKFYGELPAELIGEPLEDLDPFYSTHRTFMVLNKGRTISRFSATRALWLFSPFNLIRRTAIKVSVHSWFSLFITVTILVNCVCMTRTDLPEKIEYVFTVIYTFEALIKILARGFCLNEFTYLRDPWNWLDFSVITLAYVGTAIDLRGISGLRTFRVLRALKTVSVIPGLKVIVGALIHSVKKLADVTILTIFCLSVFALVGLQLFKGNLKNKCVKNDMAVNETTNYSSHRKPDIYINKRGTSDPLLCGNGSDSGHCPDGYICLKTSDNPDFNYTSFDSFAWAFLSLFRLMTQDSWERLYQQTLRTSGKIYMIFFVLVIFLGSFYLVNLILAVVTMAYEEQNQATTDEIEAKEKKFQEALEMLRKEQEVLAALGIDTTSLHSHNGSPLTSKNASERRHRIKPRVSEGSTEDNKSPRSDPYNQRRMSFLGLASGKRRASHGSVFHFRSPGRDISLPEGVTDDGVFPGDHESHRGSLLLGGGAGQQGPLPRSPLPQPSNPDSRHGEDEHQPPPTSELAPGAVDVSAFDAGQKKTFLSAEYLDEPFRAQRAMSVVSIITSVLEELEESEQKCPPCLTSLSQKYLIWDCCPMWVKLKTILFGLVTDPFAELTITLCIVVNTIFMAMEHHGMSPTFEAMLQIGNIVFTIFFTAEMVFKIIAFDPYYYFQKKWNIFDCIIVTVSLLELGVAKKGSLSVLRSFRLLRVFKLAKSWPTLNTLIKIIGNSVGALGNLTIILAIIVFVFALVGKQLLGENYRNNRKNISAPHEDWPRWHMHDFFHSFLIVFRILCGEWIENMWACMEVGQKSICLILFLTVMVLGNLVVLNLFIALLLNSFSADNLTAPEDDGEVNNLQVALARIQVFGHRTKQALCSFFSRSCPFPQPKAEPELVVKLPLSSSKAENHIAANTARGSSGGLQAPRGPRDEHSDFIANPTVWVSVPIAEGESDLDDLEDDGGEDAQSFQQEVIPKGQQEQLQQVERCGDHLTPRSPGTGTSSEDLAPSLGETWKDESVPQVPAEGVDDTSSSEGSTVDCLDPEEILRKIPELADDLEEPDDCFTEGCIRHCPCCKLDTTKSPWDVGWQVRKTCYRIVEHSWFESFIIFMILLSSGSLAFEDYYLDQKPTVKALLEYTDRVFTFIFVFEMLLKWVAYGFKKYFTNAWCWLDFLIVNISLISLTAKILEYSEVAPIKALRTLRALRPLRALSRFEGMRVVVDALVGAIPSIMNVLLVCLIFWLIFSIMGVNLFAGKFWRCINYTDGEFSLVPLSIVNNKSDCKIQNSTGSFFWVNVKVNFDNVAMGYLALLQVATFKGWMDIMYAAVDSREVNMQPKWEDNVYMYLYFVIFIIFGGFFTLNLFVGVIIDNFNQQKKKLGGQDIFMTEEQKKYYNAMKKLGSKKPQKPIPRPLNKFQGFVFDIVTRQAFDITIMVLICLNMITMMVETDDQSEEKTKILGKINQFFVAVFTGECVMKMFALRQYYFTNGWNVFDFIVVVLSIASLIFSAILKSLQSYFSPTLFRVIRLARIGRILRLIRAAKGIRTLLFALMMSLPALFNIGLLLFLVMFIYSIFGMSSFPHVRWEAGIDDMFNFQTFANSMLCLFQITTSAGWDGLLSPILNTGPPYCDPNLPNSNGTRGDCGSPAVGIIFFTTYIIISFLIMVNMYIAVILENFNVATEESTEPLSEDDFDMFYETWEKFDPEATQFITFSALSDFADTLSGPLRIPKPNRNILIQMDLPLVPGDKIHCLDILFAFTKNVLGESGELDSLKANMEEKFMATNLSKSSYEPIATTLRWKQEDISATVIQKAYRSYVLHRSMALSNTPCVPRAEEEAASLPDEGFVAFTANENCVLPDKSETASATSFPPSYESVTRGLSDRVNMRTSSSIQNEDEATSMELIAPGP
Sequence of CYP2D6 (P10635 whole entry): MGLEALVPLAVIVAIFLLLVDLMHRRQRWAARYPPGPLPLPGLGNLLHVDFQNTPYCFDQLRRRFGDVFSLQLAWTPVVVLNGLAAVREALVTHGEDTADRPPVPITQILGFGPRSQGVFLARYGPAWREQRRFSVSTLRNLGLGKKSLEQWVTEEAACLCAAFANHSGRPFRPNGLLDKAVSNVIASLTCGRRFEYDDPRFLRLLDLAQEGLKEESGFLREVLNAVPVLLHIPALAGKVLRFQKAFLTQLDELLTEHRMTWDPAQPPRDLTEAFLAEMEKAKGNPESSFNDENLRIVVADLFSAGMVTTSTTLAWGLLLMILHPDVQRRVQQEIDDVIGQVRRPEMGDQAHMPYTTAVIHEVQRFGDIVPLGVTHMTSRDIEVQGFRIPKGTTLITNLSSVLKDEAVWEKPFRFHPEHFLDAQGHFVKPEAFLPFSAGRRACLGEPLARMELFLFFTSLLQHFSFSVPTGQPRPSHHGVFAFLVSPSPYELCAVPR
Sequence of CYP2C19 (P33261 whole entry, canonical isoform): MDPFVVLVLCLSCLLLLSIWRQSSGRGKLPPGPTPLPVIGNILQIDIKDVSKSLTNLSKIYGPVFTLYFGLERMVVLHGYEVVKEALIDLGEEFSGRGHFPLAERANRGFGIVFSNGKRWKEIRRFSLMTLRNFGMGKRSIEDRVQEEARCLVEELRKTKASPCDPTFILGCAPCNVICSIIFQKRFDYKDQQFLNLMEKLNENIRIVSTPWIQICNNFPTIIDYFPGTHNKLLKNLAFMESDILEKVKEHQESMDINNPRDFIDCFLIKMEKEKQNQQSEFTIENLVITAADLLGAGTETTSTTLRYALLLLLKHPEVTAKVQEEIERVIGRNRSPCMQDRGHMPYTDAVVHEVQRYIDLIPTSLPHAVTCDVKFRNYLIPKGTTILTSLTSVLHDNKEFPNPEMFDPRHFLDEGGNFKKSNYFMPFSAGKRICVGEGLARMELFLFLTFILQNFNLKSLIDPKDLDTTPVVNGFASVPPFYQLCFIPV
Sequence of CYP2C9 (P11712 whole entry): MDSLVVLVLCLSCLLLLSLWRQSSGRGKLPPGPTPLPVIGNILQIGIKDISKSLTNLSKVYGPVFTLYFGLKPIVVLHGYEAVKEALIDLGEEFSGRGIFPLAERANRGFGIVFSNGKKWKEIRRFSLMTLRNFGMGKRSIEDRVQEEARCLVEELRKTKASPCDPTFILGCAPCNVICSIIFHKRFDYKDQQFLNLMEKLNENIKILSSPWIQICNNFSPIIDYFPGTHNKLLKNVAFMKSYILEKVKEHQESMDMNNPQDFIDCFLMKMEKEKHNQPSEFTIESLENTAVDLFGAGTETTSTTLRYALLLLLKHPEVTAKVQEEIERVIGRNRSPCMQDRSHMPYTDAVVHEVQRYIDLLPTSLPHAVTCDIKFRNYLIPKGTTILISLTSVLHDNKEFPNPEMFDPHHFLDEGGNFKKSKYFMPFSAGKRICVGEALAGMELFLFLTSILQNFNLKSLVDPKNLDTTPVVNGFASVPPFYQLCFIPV

## COc1ccc2c(n1)C1(CO2)C(=O)N(C[C@H]2CCCO2)c2cccc(Br)c21 (stereo partly drawn) [Example 1, 4′-bromo-5-methoxy-1′-[(2R)-tetrahydrofuran-2-ylmethyl]spiro[furo[3,2-b]pyridine-3,3′-indol]-2′(1′H)-one]
CYP3A4
  inhibition at 10 µM: < 50%
other
  melting point: 110 to 112 °C
Sodium channel
  IC50: 0.1 to 1 µM

## COc1ccc2c(n1)C1(CO2)C(=O)N(C[C@H]2CCCO2)c2ccccc21 (stereo partly drawn) [Example 2, 5-methoxy-1′-[(2R)-tetrahydrofuran-2-ylmethyl]spiro[furo[3,2-b]pyridine-3,3′-indol]-2′(1′H)-one]
other
  melting point: 52 to 56 °C

## COc1ccc2c(n1)C1(CO2)C(=O)N(Cc2ccc3c(c2)OCCO3)c2ccccc21 (stereo not drawn) [Example 3, 1′-(2,3-dihydro-1,4-benzodioxin-6-ylmethyl)-5-methoxyspiro[furo[3,2-b]pyridine-3,3′-indol]-2′(1′H)-one]
other
  melting point: 144 to 146 °C
Sodium channel
  IC50: 0.001 to 0.1 µM

## O=C1N(C[C@H]2CCCO2)c2ccccc2C12COc1c[nH]c(=O)cc12 (stereo partly drawn) [Example 4, 1′-[(2R)-tetrahydrofuran-2-ylmethyl]spiro[furo[2,3-c]pyridine-3,3′-indole]-2′,5(1′H,6H)-dione]
CYP3A4
  inhibition at 10 µM: < 50%
other
  melting point: > 250 °C
Sodium channel
  IC50: 1 to 10 µM

## O=C1Nc2ncccc2C12COc1cc3c(cc12)OCCO3 (stereo not drawn) [Example 6, 2,3-dihydrospiro[furo[2,3-g][1,4]benzodioxine-8,3′-pyrrolo[2,3-b]pyridin]-2′(1′H)-one]
CYP3A4
  inhibition at 10 µM: < 50%
other
  melting point: > 250 °C
Sodium channel
  IC50: 0.1 to 1 µM

## O=C1N(Cc2ccccn2)c2ncccc2C12COc1cc3c(cc12)OCCO3 (stereo not drawn) [Example 7, 1′-(pyridin-2-ylmethyl)-2,3-dihydrospiro[furo[2,3-g][1,4]benzodioxine-8,3′-pyrrolo[2,3-b]pyridin]-2′(1′H)-one]
CYP3A4
  inhibition at 10 µM: < 50%
Sodium channel
  IC50: 0.001 to 0.1 µM

## O=C1N(Cc2ncccc2C(F)(F)F)c2ncccc2C12COc1cc3c(cc12)OCCO3 (stereo not drawn) [Example 8, 1′-{[3-(trifluoromethyl)pyridin-2-yl]methyl}-2,3-dihydrospiro[furo[2,3-g][1,4]benzodioxine-8,3′-pyrrolo[2,3-b]pyridin]-2′(1′H)-one]
CYP3A4
  inhibition at 10 µM: < 50%
Sodium channel
  IC50: 0.1 to 1 µM

## O=C1Nc2cccnc2C12COc1cc3c(cc12)OCCO3 (stereo not drawn) [Example 10, 2,3-dihydrospiro[furo[2,3-g][1,4]benzodioxine-8,3′-pyrrolo[3,2-b]pyridin]-2′(1′H)-one]
CYP3A4
  inhibition at 10 µM: < 50%
other
  melting point: > 250 °C
Sodium channel
  IC50: 1 to 10 µM

## O=C1N(Cc2ccccn2)c2cccnc2C12COc1cc3c(cc12)OCCO3 (stereo not drawn) [Example 11, 1′-(pyridin-2-ylmethyl)-2,3-dihydrospiro[furo[2,3-g][1,4]benzodioxine-8,3′-pyrrolo[3,2-b]pyridin]-2′(1′H)-one]
CYP3A4
  inhibition at 10 µM: < 50%
other
  melting point: 146 to 147 °C
Sodium channel
  IC50: 0.1 to 1 µM

## O=C1N(Cc2ncccc2C(F)(F)F)c2cccnc2C12COc1cc3c(cc12)OCCO3 (stereo not drawn) [Example 12, 1′-{[3-(trifluoromethyl)pyridin-2-yl]methyl}-2,3-dihydrospiro[furo[2,3-g][1,4]benzodioxine-8,3′-pyrrolo[3,2-b]pyridin]-2′(1′H)-one]
CYP3A4
  inhibition at 10 µM: < 50%
other
  melting point: > 250 °C
Sodium channel
  IC50: 0.1 to 1 µM

## COc1ccc2c(n1)C1(CO2)C(=O)N(Cc2ncccc2C(F)(F)F)c2ccccc21 (stereo not drawn) [Example 13, 5-methoxy-1′-{[3-(trifluoromethyl)pyridin-2-yl]methyl}spiro[furo[3,2-b]pyridine-3,3′-indol]-2′(1′H)-one]
CYP3A4
  inhibition at 10 µM: < 50%
other
  melting point: 195 to 198 °C
Sodium channel
  IC50: 0.1 to 1 µM

## CC(=O)N1CCN(c2ccc(OCC3COC(Cn4ccnc4)(c4ccc(Cl)cc4Cl)O3)cc2)CC1 (stereo not drawn) [Ketoconazole]
CYP2C19
  inhibition at 7.62 µM: 65%

## C=C[C@H]1C[N@@]2CC[C@H]1C[C@@H]2[C@@H](O)c1ccnc2ccc(OC)cc12 [Quinidine]
CYP2D6
  inhibition at 0.0137 µM: 55%

## Nc1ccc(S(=O)(=O)Nc2ccnn2-c2ccccc2)cc1 [Sulfaphenazole]
CYP2C9
  inhibition at 0.42 µM: 50%

## NC1=N[C@H](O)[C@H]2[C@H]3O[C@]4(O)O[C@@H]([C@@H](O)[C@@]2(N1)[C@@H]4O)[C@]3(O)CO [TTX, tetrodotoxin]
CHO-K1 (NaV1.4)
  block of the increase in [14C] guanidine influx: completely blocked using TTX.
[1]
  block of the increase in [14C] guanidine influx: background was partially blocked
SK-N-BE2C (NaV1.8)
  block of the increase in [14C] guanidine influx: TTX partially blocked influx
L6 (Nav1.4 and 1.5)
  block of the increase in [14C] guanidine influx: partially blocked by TTX at 100
PC12 (Nav1.2)
  block of the increase in [14C] guanidine influx: guanidine influx was completely

— patent US20110269788A1, “SPIRO-OXINDOLE-DERIVATIVES AS SODIUM CHANNEL BLOCKERS” (Xenon Pharmaceuticals Inc., priority 2008, published 2011)
